Test results: paper PMC9360399, “Alterations to the broad-spectrum formin inhibitor SMIFH2 modulate potency but not specificity” (Scientific Reports, 2022)
Entries after “also recorded” stand apart in the source; their conditions may differ.

Experiments:
DIAPH2 = molecular target: T1, DIAPH2 (Homo sapiens, UniProt O60879); assay: pyrene-actin polymerization assay, DIAPH2-FFC; format: biochemical
T1 construct: UniProt O60879-2, aa 553–1096; 6-histidine tag (N); made in house; host or cells: ROSETTA-DE3 E. coli
T1 sequence (O60879 553-1096 isoform O60879-2): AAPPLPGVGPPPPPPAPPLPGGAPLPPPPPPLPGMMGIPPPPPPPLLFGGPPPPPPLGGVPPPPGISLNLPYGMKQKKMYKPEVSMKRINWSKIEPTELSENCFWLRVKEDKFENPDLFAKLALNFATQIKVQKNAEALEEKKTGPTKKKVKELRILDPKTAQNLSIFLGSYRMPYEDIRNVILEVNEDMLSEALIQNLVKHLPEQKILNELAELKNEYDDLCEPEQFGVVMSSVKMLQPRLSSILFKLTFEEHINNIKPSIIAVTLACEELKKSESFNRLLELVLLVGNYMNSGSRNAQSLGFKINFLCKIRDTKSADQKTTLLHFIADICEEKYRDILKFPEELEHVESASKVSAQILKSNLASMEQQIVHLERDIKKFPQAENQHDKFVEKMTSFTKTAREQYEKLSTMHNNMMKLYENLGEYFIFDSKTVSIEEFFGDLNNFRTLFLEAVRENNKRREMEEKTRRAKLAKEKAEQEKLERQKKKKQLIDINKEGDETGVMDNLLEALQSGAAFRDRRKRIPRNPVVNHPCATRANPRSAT
Protocol: (§1) Several SMIFH2 analogs are known to retain or lose inhibitory activity against mDia1[18]. We sought to expand this dataset to more extensively characterize structure–activity relationships in the SMIFH2/formin complex. All 17 analogs shown in Fig. 4 were synthesized according to the scheme described in the Experimental Procedures (Fig. 6) and characterized by proton NMR (Fig. S8). Each inhibitor was tested for potential interaction with actin in the absence of formin (Figs. S3, S4). […] This panel of 18 inhibitors was tested against five formin FFC fragments (DIAPH1, DIAPH2, INF2, FMNL3, and FMN2), and the IC50 values were measured (Fig. 4 and Table 1). One notable trend in this dataset is that the lack of specificity, noted above for SMIFH2 (Fig. 3), holds for its analogs: no modifications made to SMIFH2 led to a selective inhibitor, at least among the five formins that were tested.
(§2) Figure 4 Structure activity data for SMIFH2 and 17 analogs tested against five human formins. Each individual data point indicates an IC50 value from a titration of inhibitor in the pyrene-actin assembly assay. Conditions: 2 µM actin (5% pyrene-labeled), 4 µM S. pombe profilin, formin (5 nM DIAPH1-FFC, 5 nM DIAPH2-FFC, 5 nM INF2-FFC, 20–37.5 nM FMN2-FFC, 20 nM FMNL3-FFC), inhibitor with a fixed volume of DMSO. […] Because we cannot reliably measure IC50 values above 40 µM, those points are indicated at the > 40 µM line.
(§3) Assays were carried out as described. Rabbit skeletal muscle actin (5% pyrene labeled) was incubated for 2 min at 25 °C with 200 μM EGTA and 50 μM MgCl2 to convert Ca-actin to Mg-actin. When included in the experiment, a 2:1 molar ratio of profilin was incubated with actin for 2 min at 25 °C before conversion to Mg-actin. Polymerization was initiated by adding polymerization buffer (KMEH, final concentration: 10 mM HEPES, pH 7.0, 1 mM EGTA, 50 mM KCl, 1 mM MgCl2). Prior to mixing KMEH with actin, formins and then the inhibitor in DMSO or DMF was added at ≤ 1% of the total volume. Finally, this mixture was rapidly mixed with Mg-actin, with approximately 10–20 s dead time prior to measurement. Fluorescence was monitored every 15 s using a TECAN F200 Pro with λex = 360 ± 17 nm and λem = 415 ± 10 nm. The same volume of organic solvent (DMSO or DMF) was added to each well regardless of inhibitor concentration.

INF2 = molecular target: T2, INF2 (Homo sapiens, UniProt Q27J81); assay: pyrene-actin polymerization assay, INF2-FFC; format: biochemical
T2 construct: UniProt Q27J81-1, aa 469–1249; 6-histidine tag (N); made in house; host or cells: ROSETTA-DE3 E. coli
T2 sequence (Q27J81 469-1249): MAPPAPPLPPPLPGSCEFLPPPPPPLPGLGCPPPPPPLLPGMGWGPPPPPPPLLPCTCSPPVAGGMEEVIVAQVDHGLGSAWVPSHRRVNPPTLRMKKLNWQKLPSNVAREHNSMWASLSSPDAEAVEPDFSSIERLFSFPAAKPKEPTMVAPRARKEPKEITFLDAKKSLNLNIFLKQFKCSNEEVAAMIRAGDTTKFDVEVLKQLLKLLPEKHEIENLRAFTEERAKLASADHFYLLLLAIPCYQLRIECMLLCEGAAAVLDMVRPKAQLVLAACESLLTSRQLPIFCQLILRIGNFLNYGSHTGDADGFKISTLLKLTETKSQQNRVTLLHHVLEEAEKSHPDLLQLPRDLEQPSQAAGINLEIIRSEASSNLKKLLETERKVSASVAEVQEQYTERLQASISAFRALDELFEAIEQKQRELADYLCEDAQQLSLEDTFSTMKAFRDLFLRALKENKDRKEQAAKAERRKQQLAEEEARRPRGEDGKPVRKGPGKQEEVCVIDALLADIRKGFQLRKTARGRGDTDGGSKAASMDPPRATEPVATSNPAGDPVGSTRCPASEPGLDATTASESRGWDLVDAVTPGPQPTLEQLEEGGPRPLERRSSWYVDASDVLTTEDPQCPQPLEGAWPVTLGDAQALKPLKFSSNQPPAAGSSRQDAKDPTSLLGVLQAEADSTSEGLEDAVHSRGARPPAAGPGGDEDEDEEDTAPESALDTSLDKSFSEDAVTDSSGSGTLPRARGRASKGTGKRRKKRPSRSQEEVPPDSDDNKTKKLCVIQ
Protocol: as §1, §2, §3

DIAPH1 = DIAPH1 (Homo sapiens, UniProt O60610); assay: pyrene-actin polymerization assay, DIAPH1-FFC; format: biochemical
Sequence of DIAPH1 (O60610 769-1222 limits assumed): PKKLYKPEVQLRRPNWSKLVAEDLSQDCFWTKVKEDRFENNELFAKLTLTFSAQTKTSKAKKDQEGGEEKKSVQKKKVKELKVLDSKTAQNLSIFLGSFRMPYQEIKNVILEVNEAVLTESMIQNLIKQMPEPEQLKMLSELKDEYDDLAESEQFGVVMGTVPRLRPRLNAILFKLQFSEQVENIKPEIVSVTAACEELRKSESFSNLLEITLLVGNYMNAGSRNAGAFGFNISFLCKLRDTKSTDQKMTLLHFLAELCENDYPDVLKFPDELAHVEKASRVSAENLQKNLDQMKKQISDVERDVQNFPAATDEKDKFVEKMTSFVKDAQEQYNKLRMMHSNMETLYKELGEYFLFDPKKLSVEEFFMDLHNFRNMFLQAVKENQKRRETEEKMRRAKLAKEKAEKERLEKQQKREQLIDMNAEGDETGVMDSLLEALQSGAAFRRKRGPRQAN
Protocol: as §1, §2, §3

formin = test system: formin; parameters: method as in PMID 33589498; conditions: read-out: IC50 formin/mediated actin interactions; cited from earlier work
Drosophila myosin 5 = test system: Drosophila myosin 5; parameters: method as in PMID 33589498; conditions: read-out: IC50 actin-induced ATPase activity of Drosophila myosin 5; cited from earlier work
FMN2 = molecular target: T3, FMN2 (Homo sapiens, UniProt Q9NZ56); assay: pyrene-actin polymerization assay, FMN2-FFC; format: biochemical
T3 construct: UniProt Q9NZ56-1, aa 1192-1722; 6-histidine tag (N); made in house; host or cells: ROSETTA-DE3 E. coli
T3 sequence (Q9NZ56 1192-1722): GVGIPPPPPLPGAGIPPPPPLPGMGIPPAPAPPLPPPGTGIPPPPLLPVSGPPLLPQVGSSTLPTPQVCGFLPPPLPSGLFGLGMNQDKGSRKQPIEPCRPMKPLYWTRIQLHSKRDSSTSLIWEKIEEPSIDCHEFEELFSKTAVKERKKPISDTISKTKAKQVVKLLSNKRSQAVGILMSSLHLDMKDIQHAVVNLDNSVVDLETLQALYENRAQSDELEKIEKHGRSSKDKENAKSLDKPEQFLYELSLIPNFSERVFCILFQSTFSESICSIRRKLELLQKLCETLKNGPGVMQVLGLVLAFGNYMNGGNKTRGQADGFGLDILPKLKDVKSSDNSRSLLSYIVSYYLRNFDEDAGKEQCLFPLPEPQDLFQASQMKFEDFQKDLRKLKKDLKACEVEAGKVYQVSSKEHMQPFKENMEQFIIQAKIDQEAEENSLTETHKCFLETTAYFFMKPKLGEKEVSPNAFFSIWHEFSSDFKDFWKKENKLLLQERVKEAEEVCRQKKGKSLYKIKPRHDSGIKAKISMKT
Protocol: as §1, §2, §3

mouse Dia1 = test system: mouse Dia1; parameters: method as in PMID 19942139; conditions: reported value; cited from earlier work
FMNL3 = molecular target: T4, FMNL3 (Homo sapiens, UniProt Q8IVF7); assay: pyrene-actin polymerization assay, FMNL3-FFC; format: biochemical
T4 construct: UniProt Q8IVF7-1, aa 481-1028; 6-histidine tag (N); made in house; host or cells: ROSETTA-DE3 E. coli
T4 sequence (Q8IVF7 481-1028): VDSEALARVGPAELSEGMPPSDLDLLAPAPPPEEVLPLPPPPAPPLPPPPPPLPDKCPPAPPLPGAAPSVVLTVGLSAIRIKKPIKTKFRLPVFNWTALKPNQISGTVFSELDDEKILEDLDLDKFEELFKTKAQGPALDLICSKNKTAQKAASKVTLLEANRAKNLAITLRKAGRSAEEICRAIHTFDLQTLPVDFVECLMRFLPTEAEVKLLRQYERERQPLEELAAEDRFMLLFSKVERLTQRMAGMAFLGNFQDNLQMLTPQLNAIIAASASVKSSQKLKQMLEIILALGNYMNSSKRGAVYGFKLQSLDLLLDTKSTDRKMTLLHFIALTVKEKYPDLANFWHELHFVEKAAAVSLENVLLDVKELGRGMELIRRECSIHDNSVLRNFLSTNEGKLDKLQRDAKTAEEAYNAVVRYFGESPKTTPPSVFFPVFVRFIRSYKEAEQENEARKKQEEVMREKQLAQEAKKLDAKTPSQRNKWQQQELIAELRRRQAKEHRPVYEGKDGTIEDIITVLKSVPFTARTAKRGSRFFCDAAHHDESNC
Protocol: as §1, §2, §3

human formins = assay: pyrene-actin polymerization assay, panel of human formin FFC fragments; format: biochemical; conditions: for inhibitory activity against formins tested (in words): five formin FFC fragments (DIAPH1, DIAPH2, INF2, FMNL3, FMN2); for fold change in potency (IC50) compared with SMIFH2 (1): depending on the formin
Protocol: Figure 3 SMIFH2 has broad activity across the human formins. For each titration, pyrene fluorescence was monitored for 2 μM actin (5% pyrene-labeled)/ 4 μM S. pombe profilin. […] Increasing concentration of SMIFH2 is indicated by blue traces, with the µM concentration labeled to the right of each plot. The volume of DMSO added was the same for all traces, regardless of SMIFH2 concentration.
To characterize the specificity of SMIFH2, we titrated the inhibitor against each purified formin, controlling for the volume of DMSO for all polymerization reactions (Fig. 3, as indicated by blue traces).
as §1, §3

solubility in DMSO = format: physicochemical; conditions: had to be dissolved in DMF for assays

| Structure (SMILES) | IC50 (DIAPH2) | IC50 (INF2) | IC50 (DIAPH1) | IC50 (formin) | IC50 (Drosophila myosin 5) | IC50 (FMN2) | IC50 (mouse Dia1) | IC50 (FMNL3) | inhibitory activity against formins tested (in words) (human formins) | fold change in potency (IC50) compared with SMIFH2 (1) (human formins) | solubility (solubility in DMSO) |
| --- | --- | --- | --- | --- | --- | --- | --- | --- | --- | --- | --- |
| O=C1NC(=S)N(c2cccc(Br)c2)C(=O)C1=Cc1ccco1 [Compound 1, 1-(3-bromophenyl)-5-(furan-2-ylmethylene)-2-thioxodihydropyrimidine-4,6(1H,5H)-dione, reference compound] | 6 ± 3 µM | 10 ± 5 µM | 30 ± 10 µM | 10 to 20 µM | ~2 µM | 10 ± 3 µM | 15 µM | 21 ± 7 µM |  |  |  |
| CN1C(=O)C(=Cc2ccco2)C(=O)N(c2cccc(Br)c2)C1=S [Compound 2] | 5 ± 5 µM | 5 ± 2 µM | 13 ± 3 µM |  |  | 14 ± 2 µM |  | 4 ± 1 µM | well tolerated |  |  |
| CCN1C(=O)C(=Cc2ccco2)C(=O)N(c2cccc(Br)c2)C1=S [Compound 3] | > 40 µM | > 40 µM | > 40 µM |  |  | > 40 µM |  | 40 µM |  |  |  |
| O=C1C(=Cc2ccco2)C(=O)N(c2cccc(Br)c2)C(=S)N1c1ccccc1 [Compound 4] | 2.3 ± 1.7 µM | 4 ± 1 µM | 11 ± 7 µM |  |  | 9 ± 1 µM |  | 4 ± 1 µM | well tolerated | 3–fourfold more potent |  |
| O=C1NC(=O)N(c2cccc(Br)c2)C(=O)C1=Cc1ccco1 [Compound 5] | > 40 µM | > 40 µM | > 40 µM |  |  | > 40 µM |  | > 40 µM | complete loss of inhibitory activity |  |  |
| O=C1NC(=S)N(c2cccc(Br)c2)C(=O)C1=Cc1ccc[nH]1 [Compound 6] | > 40 µM | > 40 µM | > 40 µM |  |  | > 40 µM |  | > 40 µM | no detectable inhibitory effect |  |  |
| O=C1NC(=S)N(c2cccc(Br)c2)C(=O)C1=Cc1cccs1 [Compound 7] | > 40 µM | > 40 µM | > 40 µM |  |  |  |  | > 40 µM | no detectable inhibitory effect |  |  |
| O=C1NC(=S)N(c2ccc(Br)cc2)C(=O)C1=Cc1ccco1 [Compound 8] | 3 ± 1 µM | 7 ± 2 µM | 8 ± 3 µM |  |  | 8 ± 4 µM |  | 6 ± 3 µM | maintained or slightly enhanced inhibitory activity |  |  |
| O=C1NC(=S)N(c2ccccc2)C(=O)C1=Cc1ccco1 [Compound 9] | 40 µM | 30 µM | > 40 µM |  |  |  |  | > 40 µM | measurable but weak to minimal activity |  | low solubility; also recorded: poorly soluble in DMSO |
| COc1ccc(N2C(=O)C(=Cc3ccco3)C(=O)NC2=S)cc1 [Compound 10] | 12 ± 8 µM | 37 ± 16 µM | 27 ± 12 µM |  |  | 23 ± 4 µM |  | 17 ± 6 µM | reduced activity |  |  |
| COc1ccc(N2C(=O)C(=Cc3ccc(Br)o3)C(=O)NC2=S)cc1 [Compound 11] | 2 ± 1.4 µM | 3 ± 2 µM | 8 ± 2 µM |  |  | 10 ± 1 µM |  | 7 ± 1 µM |  |  |  |
| COc1ccc(N2C(=O)C(=Cc3ccc(Cl)o3)C(=O)NC2=S)cc1 [Compound 12] | 1 ± 0.2 µM | 2 ± 1 µM | 4 ± 1 µM |  |  | 5 ± 3 µM |  | 3 ± 2 µM | most potent inhibitor | two–ninefold |  |
| COc1ccc(N2C(=O)C(=Cc3cc(Br)co3)C(=O)NC2=S)cc1 [Compound 13] | 3.3 ± 0.2 µM | 6 ± 2 µM |  |  |  |  |  | 4 ± 1 µM |  |  |  |
| O=C1NC(=S)N(c2ccc(Br)cc2)C(=O)C1=Cc1ccc(Cl)o1 [Compound 14] | 4 ± 1 µM | 8 ± 1 µM | 14 ± 2 µM |  |  | 15 µM |  | 10 µM |  |  |  |
| O=C1NC(=S)N(c2cccc(Br)c2)C(=O)C1=Cc1ccc(Cl)o1 [Compound 15] | 4 ± 1 µM | 4 ± 1 µM | 12 ± 6 µM |  |  | 11 ± 4 µM |  | 7 ± 1 µM | well tolerated |  |  |
| O=C1NC(=S)N(c2cccc(Br)c2)C(=O)C1=Cc1ccc(Br)o1 [Compound 16] | 9 ± 1 µM | 7 ± 3 µM | 30 ± 10 µM |  |  | 25 ± 5 µM |  | 14 ± 5 µM | well tolerated |  |  |
| Cc1ccc(C=C2C(=O)NC(=S)N(c3cccc(Br)c3)C2=O)o1 [Compound 17] | > 40 µM | > 40 µM | > 40 µM |  |  | > 40 µM |  | > 40 µM | abolished activity |  |  |
| O=C1NC(=S)N(c2cccc(Br)c2)C(=O)/C1=C/C=C/c1ccco1 [Compound 18] | 20 µM | > 40 µM |  |  |  |  |  |  | modest activity |  |  |
